Source: patent US20240300959A1, “BALASUBRAMIDE DERIVATIVE AND USE THEREOF IN PREPARATION OF MEDICINE FOR TREATING ACUTE LUNG INJURY” (Guangdong Pharmaceutical University, priority 2023, published 2024)

Tests used:
[1] = system: TNF-α in RAW264.7 macrophages stimulated by lipopolysaccharide; assay: TNF-α ELISA in cell supernatant of LPS-stimulated RAW264.7 macrophages; assay type: cell-based, mice; settings: 10 μM; for activity at 10 µM: Mus musculus, RAW264.7, 2 h, 3 h pretreatment, LPS 100 ng/mL 2 h, RAW264.7, read-out: Percentage of TNF-α in a model group (%)
Experimental: RAW264.7 cells were inoculated into a 96-well plate at a density of 1×10^5 per well. When the cell density was 70%-80%, 18 balasubramide derivatives were prepared into 10 mM working solutions with DMSO, respectively, and then used to pretreat mononuclear macrophages RAW264.7 of mice at a final concentration of 10 μM. After 3 h, lipopolysaccharide (LPS, 100 ng/mL) was added into all wells for action for 2 h except for a control group. A supernatant was collected for later use, and the expression level of an inflammatory factor TNF-α in the cell supernatant was detected according to an operation instruction of a commercial ELISA kit.
RAW264.7 cells were inoculated into a 96-well plate at a density of 1×10^5 per well. When the cell density was 70%-80%, the RAW264.7 cells were pretreated with (+)3C-20 ([…]). After 3 h, lipopolysaccharide (LPS, 100 ng/mL) was added into all wells for action for 2 h except for a control group. The expression level of an inflammatory factor TNF-α in a cell supernatant was detected according to an operation instruction of a commercial ELISA kit, and the cell viability at different administration concentrations of (+)3C-20 was determined according to an operation instruction of a CCK-8 kit.

RAW264.7 cells = assay: Cytotoxicity test, CCK-8 cell viability of RAW264.7 cells (24 h); assay type: cell-based, mice; settings: 10 μM, RAW264.7 cell viability
Experimental: RAW264.7 cells were inoculated into a 96-well plate at a density of 1×10^5 per well. When the cell density was 70%-80%, the RAW264.7 cells were pretreated with 10 mM working solutions prepared from 18 balasubramide derivatives at a final concentration of 10 μM for 24 h, and then the cell viability was determined by a CCK-8 method.

[2] = system: mice with sepsis and lung injury caused by intraperitoneal injection of lipopolysaccharide; assay: Acute lung injury caused by sepsis (intraperitoneal injection of lipopolysaccharide); assay type: in vivo, ICR mice
Experimental: Administration and grouping of animals: Male ICR mice were used as experimental animals, which were randomly divided into a control group, a model group, a positive administration group and administration groups according to the body weight. The control group and the model group were administered with a solvent by intraperitoneal injection (the solvent was prepared from DMSO, Kolliphor HS15 and Saline at a ratio of 1:2:7), the positive administration group was administered with 5 mg/kg dexamethasone (DEX) by intraperitoneal injection, and the administration groups were administered with (+)3C-20 at a concentration of 10 mg/kg and 50 mg/kg, respectively, by intraperitoneal injection. The dexamethasone and the (+)3C-20 were dissolved in the above solvent and were clear and transparent. The administration was continued for 3 days. 2 h after the last administration, all the other groups were administered with LPS (10 mg/kg) by intraperitoneal injection while the control group was administered with an equal volume of normal saline by intraperitoneal injection. Body weight and lung index: The mice were weighed and randomly divided on day 1 and continuously weighed for 3 days before administration, and growth conditions of the mice were measured by statistics. The mice were administered with LPS by intraperitoneal injection 2 h after administration on day 3, then the mice were dissected 6 h later, and the lungs were taken, weighed and recorded.
On day 3, 6 h after the intraperitoneal injection of LPS, whole blood was collected from eye sockets and then subjected to centrifugation to prepare serum, and the serum was frozen at −80° C. The lungs were subjected to perfusion with PBS and fixed by paraformaldehyde, and the fixed lungs were stained with hematoxylin-eosin (H&E) after dehydration, paraffin embedding and sectioning. The serum was tested by a commercial TNF-α ELISA kit. Histopathological results and data statistics are shown in FIG. 7-1, FIG. 7-2 and Table 7.
A small amount of frozen lung tissues were taken and fully ground, and the expression of inflammation related genes in the lung tissues was detected by an RT-PCR technology according to an operation instruction of an RNA extraction kit.

[3] = system: mice with acute lung injury caused by intratracheal instillation of lipopolysaccharide; assay: Acute lung injury caused by lung exposure to bacterial endotoxin (intratracheal instillation of LPS); assay type: in vivo, ICR mice
Experimental: Grouping, administration and modeling of animals: Male ICR mice were used as experimental animals, which were randomly divided into a control group, a model group, a positive administration group and administration groups according to the body weight. The control group and the model group were administered with a solvent by intraperitoneal injection (the solvent was prepared from DMSO, Kolliphor HS15 and Saline at a ratio of 1:2:7), the positive administration group was administered with 5 mg/kg dexamethasone by intraperitoneal injection, and the administration groups were administered with (+)3C-20 at a concentration of 10 mg/kg and 50 mg/kg, respectively, by intraperitoneal injection. The dexamethasone and the (+)3C-20 were dissolved in the above solvent and were clear and transparent. The administration was continued for 3 days. 2 h after the last administration, the mice were anesthetized with 2.5% isoflurane, necks were disinfected, cortices of the necks were cut, and tracheae were separated. All other groups were administered with 50 μL of 10 mg/mL LPS (LPS dissolved in Saline) at a dose of 20 mg/kg by instillation while the control group was administered with 50 μL of Saline by intratracheal instillation (it.), and the cortices were sutured. 6 h after the instillation of LPS, the mice were sacrificed, and serum and lung tissues were taken for later use. Body weight and lung index: The mice were weighed and randomly divided on day 1 and continuously weighed for 3 days before administration. 2 h after the last administration, the mice were administered with 50 μL of […] LPS by intratracheal instillation. 6 h later, the mice were dissected, and the lungs were taken and weighed.
On day 3, 6 h after the intratracheal instillation of LPS, a part of the mice were subjected to perfusion with PBS and treated with paraformaldehyde to fix the right lobe of the lungs, another part of the mice were dissected to obtain lungs, and the lungs were frozen with liquid nitrogen for later use. The fixed right lungs were stained with hematoxylin-eosin (H&E) after dehydration, paraffin embedding and sectioning. 40 mg of the frozen lungs were cut, 300 μL of an RIPA lysis buffer was added thereto and homogenized by starting for 45 s and stopping for 15 s at a frequency of 60 Hz in 4 cycles for full lysis, and then centrifuged at 12,000 rpm at 4° C. A supernatant was taken, the protein concentration was calibrated and adjusted with a BCA protein assay kit, and then the level of an inflammatory factor TNF-α in lung tissue homogenates of various groups was detected by a commercial TNF-α ELISA kit. Results are shown in Table 10, FIG. 10-1 and FIG. 10-2.
A small amount of frozen lung tissues were taken, a Trizol lysis reagent was added thereto and fully ground, RNA was extracted according to an operation instruction of an RNA extraction kit, and the expression of inflammation related genes in the lung tissues was detected by an RT-PCR technology. Experimental results are shown in Table 11, FIG. 11-1 and FIG. 11-2.

[4] = 5 mg/kg i.p., lung tissue RT-PCR, i.p. LPS
[5] = 5 mg/kg intraperitoneal, i.p. LPS sepsis model, in g (unit assumed)
[6] = 5 mg/kg i.p., lung tissue RT-PCR, intratracheal LPS
[7] = 5 mg/kg intraperitoneal, intratracheal LPS model, in g (unit assumed)

O=C(CCc1ccc(C(F)(F)F)cc1)O[C@@H]1C(=O)NCCc2c([nH]c3ccccc23)[C@H]1c1ccc(C(F)(F)F)cc1 (racemic) [(±)-3C-20]
anti-inflammatory activity (inhibition of expression of TNF-α in macrophages), in words ([1]; RAW264.7, LPS): better anti-inflammatory activity than other derivatives

O=C1NCCc2c([nH]c3ccccc23)[C@@H](c2ccc(C(F)(F)F)cc2)[C@@H]1O [(+)-3C]
activity at 10 µM [1]: 86.4 ± 3.06%
Percentage of CCK-8 in a model group (%) (RAW264.7 cells): 105.39 ± 4.26%

O=C(CCc1ccc(C(F)(F)F)cc1)O[C@@H]1C(=O)NCCc2c([nH]c3cccc(F)c23)[C@H]1c1ccc(C(F)(F)F)cc1 [(+)-B3a]
activity at 10 µM [1]: 91.2 ± 3.03%
Percentage of CCK-8 in a model group (%) (RAW264.7 cells): 103.22 ± 1.79%

COc1ccc2[nH]c3c(c2c1)CCNC(=O)[C@@H](OC(=O)CCc1ccc(C(F)(F)F)cc1)[C@@H]3c1ccc(C(F)(F)F)cc1 [(+)-B3c]
activity at 10 µM [1]: 84.5%
Percentage of CCK-8 in a model group (%) (RAW264.7 cells): 96.16 ± 4.12%

O=C(CCc1ccc(C(F)(F)F)cc1)O[C@@H]1C(=O)NCCc2c([nH]c3ccc(F)cc23)[C@H]1c1ccc(C(F)(F)F)cc1 [(+)-B3d]
activity at 10 µM [1]: 101 ± 4.46%
Percentage of CCK-8 in a model group (%) (RAW264.7 cells): 90.33 ± 5.86%

O=C(CCc1ccc(C(F)(F)F)cc1)O[C@@H]1C(=O)NCCc2c([nH]c3ccc(Br)cc23)[C@H]1c1ccc(C(F)(F)F)cc1 [(+)-B3e]
activity at 10 µM [1]: 76.2%
Percentage of CCK-8 in a model group (%) (RAW264.7 cells): 95.66 ± 4.02%

O=C(CCc1ccc(C(F)(F)F)cc1)O[C@@H]1C(=O)NCCc2c([nH]c3cc(Cl)ccc23)[C@H]1c1ccc(C(F)(F)F)cc1 [(+)-B3f]
activity at 10 µM [1]: 90.2 ± 2.92%
Percentage of CCK-8 in a model group (%) (RAW264.7 cells): 96.96 ± 3.85%

Cc1cccc2c3c([nH]c12)[C@@H](c1ccc(C(F)(F)F)cc1)[C@H](OC(=O)CCc1ccc(C(F)(F)F)cc1)C(=O)NCC3 [(+)-B3g]
activity at 10 µM [1]: 78.5%
Percentage of CCK-8 in a model group (%) (RAW264.7 cells): 101.49 ± 2.57%

O=C(CCc1ccc(C(F)(F)F)cc1)O[C@@H]1C(=O)NCCc2c([nH]c3ccc(OCc4ccccc4)cc23)[C@H]1c1ccc(C(F)(F)F)cc1 [(+)-B3h]
activity at 10 µM [1]: 66.1%
Percentage of CCK-8 in a model group (%) (RAW264.7 cells): 99.75 ± 1.27%

CCOc1ccc2[nH]c3c(c2c1)CCNC(=O)[C@@H](OC(=O)CCc1ccc(C(F)(F)F)cc1)[C@@H]3c1ccc(C(F)(F)F)cc1 [(+)-D7a]
activity at 10 µM [1]: 97.7 ± 1.5%
Percentage of CCK-8 in a model group (%) (RAW264.7 cells): 106.69 ± 1.21%

O=C(CCc1ccc(C(F)(F)F)cc1)O[C@@H]1C(=O)NCCc2c([nH]c3ccc(OC(=O)c4ccc([N+](=O)[O-])cc4)cc23)[C@H]1c1ccc(C(F)(F)F)cc1 [(+)-D7c]
activity at 10 µM [1]: 74.5 ± 3.55%
Percentage of CCK-8 in a model group (%) (RAW264.7 cells): 109.17 ± 0.16%

Cn1c2c(c3ccccc31)CCNC(=O)[C@@H](OC(=O)CCc1ccc(C(F)(F)F)cc1)[C@@H]2c1ccc(C(F)(F)F)cc1 [(+)-c1]
activity at 10 µM [1]: 83.4%
Percentage of CCK-8 in a model group (%) (RAW264.7 cells): 105.02 ± 2.84%

CCn1c2c(c3ccccc31)CCNC(=O)[C@@H](OC(=O)CCc1ccc(C(F)(F)F)cc1)[C@@H]2c1ccc(C(F)(F)F)cc1 [(+)-c2]
activity at 10 µM [1]: 101 ± 1.21%
Percentage of CCK-8 in a model group (%) (RAW264.7 cells): 102.17 ± 2.74%

CCCn1c2c(c3ccccc31)CCNC(=O)[C@@H](OC(=O)CCc1ccc(C(F)(F)F)cc1)[C@@H]2c1ccc(C(F)(F)F)cc1 [(+)-c3]
activity at 10 µM [1]: 81.8 ± 1.11%
Percentage of CCK-8 in a model group (%) (RAW264.7 cells): 110.41 ± 0.54%

C=CCn1c2c(c3ccccc31)CCNC(=O)[C@@H](OC(=O)CCc1ccc(C(F)(F)F)cc1)[C@@H]2c1ccc(C(F)(F)F)cc1 [(+)-c4]
activity at 10 µM [1]: 96.1 ± 1.48%
Percentage of CCK-8 in a model group (%) (RAW264.7 cells): 110.28 ± 1.56%

CC(C)(C)OC(=O)N[C@H](CC(=O)O[C@@H]1C(=O)NCCc2c([nH]c3ccccc23)[C@H]1c1ccc(C(F)(F)F)cc1)c1ccc(C(F)(F)F)cc1 [(+)-c5]
activity at 10 µM [1]: 71.77 ± 0.56%
Percentage of CCK-8 in a model group (%) (RAW264.7 cells): 110.66 ± 0.55%

O=C1NCCc2c([nH]c3ccc(Br)cc23)[C@@H](c2ccccc2)[C@@H]1O [B001]
activity at 10 µM [1]: 71.9 ± 3.5%
Percentage of CCK-8 in a model group (%) (RAW264.7 cells): 108.8 ± 2.72%

C[C@@H]1C[C@H]2[C@@H]3CCC4=CC(=O)C=C[C@]4(C)[C@@]3(F)[C@@H](O)C[C@]2(C)[C@@]1(O)C(=O)CO [Dexamethasone, dexamethasone, reference compound]
Content of TNF-α in serum (% of Model) ([2]; 5 mg/kg i.p., 6 h after i.p. LPS): 40.09 ± 2.26 % of Model
Area percentage of alveolar cells (%) ([2]; 5 mg/kg i.p., 6 h after i.p. LPS, H&E lung sections): 32.2 ± 0.95 %
Change multiple of IL-1β [2, 4]: 8.65 ± 1.04
Change multiple of IL-6 [2, 4]: 40.56 ± 7.55
Change multiple of TNF-α [2, 4]: 6.09 ± 0.82
Change multiple of iNOS [2, 4]: 2.61 ± 0.39
Lung index (%) ([2]; 5 mg/kg intraperitoneal 3 days, 6 h after i.p. LPS 10 mg/kg): 0.649 ± 0.01 %
Body weight (Day 1) [2, 5]: 25.11 ± 0.52
Body weight (Day 2) [2, 5]: 26.23 ± 0.38
Body weight (Day 3) [2, 5]: 26.97 ± 0.45
Content of TNF-α in a lung tissue homogenate (% of Model) ([3]; 5 mg/kg i.p., 6 h after intratracheal LPS): 54.882 ± 6.836 % of Model
Area percentage of alveolar cells (%) ([3]; 5 mg/kg i.p., 6 h after intratracheal LPS, H&E lung sections): 34.322 ± 2.452 %
Change multiple of COX-2 [3, 6]: 2.75 ± 0.24
Change multiple of IL-1β [3, 6]: 12.38 ± 1.28
Change multiple of IL-6 [3, 6]: 14.75 ± 2.71
Change multiple of TNF-α [3, 6]: 18.63 ± 2.26
Change multiple of iNOS [3, 6]: 10.02 ± 1.78
Lung index (%) ([3]; 5 mg/kg intraperitoneal 3 days, 6 h after intratracheal LPS): 0.591 ± 0.008 %
Body weight (Day 1) [3, 7]: 27.51 ± 0.11
Body weight (Day 2) [3, 7]: 28.75 ± 0.17
Body weight (Day 3) [3, 7]: 29.48 ± 0.17
